# Data reported in publication PMC7573392, “Monitoring Allosteric Interactions with CXCR4 Using NanoBiT Conjugated Nanobodies” (Cell Chemical Biology, 2020).
# Key:
# LgBiT-CXCR4 [1] = biological target: T1, LgBiT-CXCR4 (Homo sapiens, UniProt P61073); assay: NanoBiT saturation binding (complemented luminescence) in HEK293 cells stably expressing LgBiT-CXCR4; details: fixed concentration: 100 nM CXCL12, 10 μM AMD3100 or 10 μM IT1t (Figure 3E)
# T1 construct: GSSG linker and TEV recognition site (EDLYFQS), between LgBiT and CXCR4 (N); expressed in transfected cells; whole cells in A1-A4, isolated membranes in A9/A10
# T1 sequence (P61073 2-352 limits assumed): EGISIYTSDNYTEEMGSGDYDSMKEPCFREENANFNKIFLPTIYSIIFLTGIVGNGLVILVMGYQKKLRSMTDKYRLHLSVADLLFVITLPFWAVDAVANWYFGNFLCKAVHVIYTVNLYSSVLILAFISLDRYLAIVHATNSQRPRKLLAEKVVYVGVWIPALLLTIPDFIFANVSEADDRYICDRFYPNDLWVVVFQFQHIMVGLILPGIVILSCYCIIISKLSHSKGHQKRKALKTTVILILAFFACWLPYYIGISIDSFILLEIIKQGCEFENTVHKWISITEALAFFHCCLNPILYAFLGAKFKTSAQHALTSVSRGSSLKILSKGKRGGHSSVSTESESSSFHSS
# Procedure: Saturation binding with VUN400-HiBiT was performed on HEK 293 cells stably expressing the LgBiT-CXCR4 receptor. Cells were plated at 30,000 cells/well in white 96-well plates previously coated with poly-D-lysine (10 μg/ml in PBS) in 100 μl complete media (DMEM with 10% FCS). After 24 hours, the media was removed and replaced with 100 μl HBSS containing VUN400-HiBiT within the range of 4-500 nM. Where used, CXCL12, AMD3100 or IT1t were also added at this point. The plate was incubated for two hours at 37°C. Furimazine (1:400 final concentration) was added to each well and the plate was incubated for a further 15 minutes at 37°C. Luminescence was measured using the PHERAstar FS plate reader.
# Saturation binding curves of VUN400-HiBiT were fitted using the following equation: Specificbinding=Bmax×[B]/[B]+KD where Bmax is the maximal specific binding, [B] is the concentration of VUN400-HiBiT, and KD is the equilibrium dissociation constant (nM).
# LgBiT-CXCR4 [2] = biological target: T1, LgBiT-CXCR4; assay: NanoBiT nanobody displacement binding assay, whole HEK293 cells expressing LgBiT-CXCR4; details: 20 nM VUN400-HiBiT
# Procedure: (§1) Full nanobody displacement assays were performed in HEK293 cells stably expressing either the LgBiT-CXCR4 or SNAP-CXCR4 constructs. Cells (30,000 per well) were plated in white 96-well poly-D-lysine coated plates as described above. After 24 hours, media was removed and replaced with 100 μl HBSS. Increasing concentrations of displacing ligands were added to the cells. […] The cells were incubated at 37°C for 2 and a half hours in total. […] Furimazine (1:400 final concentration) was added to each well and the plate was incubated for a further 15 minutes at 37°C. Luminescence was measured using the PHERAstar FS plate reader.
# [3] = system: T2, endogenous, untagged CXCR4; assay: Nanobody displacement assay in Jurkat T cells (endogenous CXCR4); type: binding, human; details: 100 nM VUN400-HiBiT with competing ligand 2 h, washed, exogenous LgBiT added, p < 0.05
# T2 construct: these cells express high levels of CXCR4 endogenously; host or cells: Jurkat T cells (clone E6-1)
# Procedure: Nanobody displacement assays in T-cells were performed by seeding 100,000 Jurkat cells per well into V-bottom 96-well plates in 100μl warm HBSS. Cells were treated with 100 nM VUN400-HiBiT and competing ligands simultaneously and incubated for 2 hours at 37°C. The cells were pelleted by centrifugation at 300g for 5 minutes and the supernatant removed and replaced with 200 μl fresh HBSS. Cells were resuspended via shaking at 1000 r.p.m on an orbital plate shaker for 2 minutes. This wash step was repeated two more times to remove unbound VUN400-HiBiT. The cells were treated with 20 nM exogenous LgBiT and furimazine (1:400 final concentration) and transferred to white 96-well plates and luminescence read using a PHERAstar FS plate reader.
# SNAP-CXCR4 [4] = biological target: T3, SNAP-CXCR4 (Homo sapiens, UniProt P61073); details: 10 μM AMD3100 (Figure S1)
# T3 sequence (P61073 whole entry): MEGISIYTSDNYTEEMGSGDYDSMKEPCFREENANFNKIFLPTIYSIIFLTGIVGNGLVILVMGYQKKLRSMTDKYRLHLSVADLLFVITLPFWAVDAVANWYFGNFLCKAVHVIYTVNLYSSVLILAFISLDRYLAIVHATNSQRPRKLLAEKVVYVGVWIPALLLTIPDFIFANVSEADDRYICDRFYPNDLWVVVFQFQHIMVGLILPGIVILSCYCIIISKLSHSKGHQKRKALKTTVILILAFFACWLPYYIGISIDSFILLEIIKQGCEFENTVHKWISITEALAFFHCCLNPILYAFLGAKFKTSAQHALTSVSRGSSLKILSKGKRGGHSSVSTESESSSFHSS
# Text: Data are mean ± SEM from triplicate determinations in a single experiment. This single
# Data are mean ± SEM from triplicate determinations in a single experiment.
# SNAP-CXCR4 [5] = biological target: T3, SNAP-CXCR4; assay: NanoBiT nanobody displacement binding assay, whole HEK293 cells expressing SNAP-CXCR4 (exogenous LgBiT added after washing); parameters: expressed in transfected cells; host or cells: HEK293G cells stably expressing SNAP-CXCR4 (gift of Dr. J. Goulding, University of Nottingham); details: 20 nM VUN400-HiBiT
# Procedure: as §1
# LgBiT-CXCR4 [6] = biological target: T1, LgBiT-CXCR4; assay: NanoBRET saturation binding at complemented LgBiT-CXCR4 in HEK293 cells; details: non-specific binding defined with 10 μM AMD3100, 2 h 37°C
# Procedure: Saturation NanoBRET binding assays were performed on HEK 293 cells stably expressing the LgBiT-CXCR4 receptor. Cells were plated at 30,000 cells/well in white 96-well plates (Greiner) previously coated with 50 μl poly-D-lysine (mol wt: 70-150 kDa; 10 μg/ml in PBS) in 100 μl complete media (DMEM with 10% FCS). After 24 hours, the media was removed from each well and replaced with 100 μl HEPES-buffered saline solution (HBSS; 145 mM NaCl, 5 mM KCl, 1.3 mM CaCl2, 1 mM MgSO4, 10 mM HEPES, 2 mM sodium pyruvate, 1.5 mM NaHCO3, 10 mM D-glucose, pH 7.45) containing 10 nM purified HiBiT-HaloTag (Promega) and incubated at 37°C for 30 minutes. This was sufficient time for HiBiT-LgBiT complementation to occur, forming the fully complemented NanoLuc enzyme. The HBSS was then aspirated and the cells washed three times with 100 μl HBSS. […] Cells were incubated for 2 hours at 37°C in the dark. The NanoLuc substrate furimazine (Promega) was added to each well (1:400 final concentration) and allowed to equilibrate for 5 minutes at 37°C prior to reading. Luminescence signals were measured at two wavelengths using a PHERAstar FS plate reader (BMG Labtech, UK) at room temperature. Filtered light was simultaneously measured using 460 nm (80-nm bandpass) and >610 nm longpass filters. The resulting BRET ratio was calculated by dividing the >610 nm emission by the 460 nm emission.
# LgBiT-CXCR4 [7] = biological target: T1, LgBiT-CXCR4; assay: CXCL12-AF647 dissociation kinetics (NanoBRET) at complemented LgBiT-CXCR4; type: binding
# Procedure: Nanobody and CXCL12-AF647 dissociation kinetic measurements were performed in membranes isolated from HEK293 LgBiT-CXCR4 cells. Briefly, 10 μg LgBiT-CXCR4 membranes were plated in white 96-well plates containing furimazine (1:400 final concentration) and incubated at 37°C for 10 minutes. […] Increasing concentrations of VUN400-HiBiT or CXCL12-AF647 were added to the wells and luminescence (VUN400-HiBiT) or the BRET ratio (CXCL12-AF647) were measured. […] The BRET ratio was calculated as described above. Both the BRET ratio and luminescence were measured using the PHERAstar FS plate reader.
# For nanobody dissociation experiments were fitted to the following mono-exponential decay equation: Y=(Y0−NS)^−k.t+NS where Y0 is the nanobody binding at the time of ligand addition (t0), NS is the nanobody bound at infinite time, and k is the rate constant of nanobody dissociation.
# SNAP-CXCR4 [8] = biological target: T3, SNAP-CXCR4; assay: TR-FRET saturation ligand binding at SNAP-CXCR4; parameters: expressed in transfected cells; host or cells: HEK293G cells stably expressing SNAP-CXCR4 (gift of Dr. J. Goulding, University of Nottingham)
# Text: Saturation binding of VUN400-HiBiT a t th e
# experiment is representative of five separate experiments.
# Supplementary Figure 2 (related to Figure 5).
# This single experiment is representative of five separate experiments.
# [9] = (a) pre-incubation with VUN400-HiBiT
# [10] = (c) pre-incubation with ligands
prevention of VUN400-HiBiT binding to LgBiT-CXCR4 (LgBiT-CXCR4 [1]),Maximum Inhibition (% 10 μM AMD3100) (LgBiT-CXCR4 [2]; [9]),Maximum Inhibition (% 10 μM AMD3100) (LgBiT-CXCR4 [2]; (b) simultaneous addition),Maximum Inhibition (% 10 μM AMD3100) (LgBiT-CXCR4 [2]; [10]),Maximum Inhibition (% 10 μM AMD3100) (SNAP-CXCR4 [5]; [9]),Maximum Inhibition (% 10 μM AMD3100) (SNAP-CXCR4 [5]; (b) simultaneous addition),Maximum Inhibition (% 10 μM AMD3100) (SNAP-CXCR4 [5]; [10]),Molecule,displacement of VUN400-HiBiT from endogenous CXCR4 [3],effect on VUN400-HiBiT bioluminescence signal at SNAP-CXCR4 (SNAP-CXCR4 [4]),pKD (LgBiT-CXCR4 [6]),"koff (LgBiT-CXCR4 [7]; 10 nM CXCL12-AF647, after addition of 1 μM CXCL12)","koff (LgBiT-CXCR4 [7]; 10 nM CXCL12-AF647, after addition of 10 μM AMD3100)",pKD (SNAP-CXCR4 [8])
prevented,100 % 10 μM AMD3100,100 % 10 μM AMD3100,100 % 10 μM AMD3100,100 % 10 μM AMD3100,100 % 10 μM AMD3100,100 % 10 μM AMD3100,c1cc(CN2CCCNCCNCCCNCC2)ccc1CN1CCCNCCNCCCNCC1 [AMD3100],displaced,able to reduce the bioluminescence signals,,,,
prevented,104.4 ± 4.5 % 10 μM AMD3100,96.5 ± 0.4 % 10 μM AMD3100,79.9 ± 3.1 ^c % 10 μM AMD3100,107.1 ± 4.8 % 10 μM AMD3100,106.8 ± 11.5 % 10 μM AMD3100,102.3 ± 3.6 % 10 μM AMD3100,"CC1(C)CN2C(CSC(=NC3CCCCC3)NC3CCCCC3)=CSC2=N1.Cl.Cl [IT1t, N,N’-Dicyclohexylcarbamimidothioic acid (5,6-dihydro-6,6-dimethylimidazo[2,1-b]thiazol-3-yl)methyl ester dihydrochloride]",displaced,,,,,
,,,,,,,"CXCL12-AF647: fluorescently labeled CXCL12, fluorescent orthosteric agonist (Almac)",,,7.80 ± 0.08,0.32 ± 0.03 min⁻¹,0.42 ± 0.04 min⁻¹,7.99 ± 0.10
